Test results taken from publication PMC11078216, “Discovery of potent and selective activity-based probes (ABPs) for the deubiquitinating enzyme USP30” (RSC Chemical Biology, 2024).
Each block holds one compound with its values, some of them ahead of it.

Key:
Experiment in all cases: ABPP chemical proteomics (LC-MS/MS) in HEK293T cells
Format in all cases: cell-based
CNP = target: T1, CNP (Homo sapiens, UniProt P09543); details: IMP-2586 labelling vs DMSO, 30 nM, 10 min, HEK293T (Table S4, Fig.5c)
T1 construct: endogenous in cells; host or cells: HEK293T
Method in brief: (§1)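 Proteome-wide selectivity was profiled by competitive ABPP. Cells received […] and then activity-based probe for 1 h at 37 °C. Lysates were ligated to biotin capture tags, affinity-enriched and analysed by mass spectrometry.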

TMEM109 = target: T2, TMEM109 (Homo sapiens, UniProt Q9BVC6); details: IMP-2586 labelling vs DMSO, 30 nM, 10 min, HEK293T (Table S4, Fig.5c)
T2 construct: endogenous in cells; host or cells: HEK293T
Method in brief: as §1

RPL27 = target: T3, RPL27 (Homo sapiens, UniProt P61353); details: IMP-2586 labelling vs DMSO, 30 nM, 10 min, HEK293T (Table S4, Fig.5c)
T3 construct: endogenous in cells; host or cells: HEK293T
Method in brief: as §1

RER1 = target: T4, RER1 (Homo sapiens, UniProt O15258); details: IMP-2586 labelling vs DMSO, 30 nM, 10 min, HEK293T (Table S4, Fig.5c)
T4 construct: endogenous in cells; host or cells: HEK293T
Method in brief: as §1

ASAH1 = target: T5, ASAH1 (Homo sapiens, UniProt Q13510); details: IMP-2586 labelling vs DMSO, 30 nM, 10 min, HEK293T (Table S4, Fig.5c)
T5 construct: endogenous in cells; host or cells: HEK293T
Method in brief: as §1

AURKAIP1 = target: T6, AURKAIP1 (Homo sapiens, UniProt Q9NWT8); details: IMP-2586 labelling vs DMSO, 30 nM, 10 min, HEK293T (Table S4, Fig.5c)
T6 construct: endogenous in cells; host or cells: HEK293T
Method in brief: as §1

HSDL1 = target: T7, HSDL1 (Homo sapiens, UniProt Q3SXM5); details: IMP-2586 labelling vs DMSO, 30 nM, 10 min, HEK293T (Table S4, Fig.5c)
T7 construct: endogenous in cells; host or cells: HEK293T
Method in brief: as §1

CAV1 = details: IMP-2586 labelling vs DMSO, 30 nM, 10 min, HEK293T (Table S4, Fig.5c)
Method in brief: as §1

SMARCA4 = target: T8, SMARCA4 (Homo sapiens, UniProt P51532); details: IMP-2586 labelling vs DMSO, 30 nM, 10 min, HEK293T (Table S4, Fig.5c)
T8 construct: endogenous in cells; host or cells: HEK293T
Method in brief: as §1

HMGCS1 = target: T9, HMGCS1 (Homo sapiens, UniProt Q01581); details: IMP-2587 labelling vs DMSO, 30 nM, 10 min, HEK293T (Table S2, Fig.5a)
T9 construct: endogenous in cells; host or cells: HEK293T
Method in brief: as §1

H2AFV;H2AFZ = details: IMP-2587 labelling vs DMSO, 30 nM, 10 min, HEK293T (Table S2, Fig.5a)
Method in brief: as §1

NPM3 = target: T10, NPM3 (Homo sapiens, UniProt O75607); details: IMP-2587 labelling vs DMSO, 30 nM, 10 min, HEK293T (Table S2, Fig.5a)
T10 construct: endogenous in cells; host or cells: HEK293T
Method in brief: as §1

DCD = target: T11, DCD (Homo sapiens, UniProt P81605); details: compound 1 out-competition with IMP-2587 labelling, HEK293T (Table S3, Fig.5b)
T11 construct: endogenous in cells; host or cells: HEK293T
Method in brief: as §1

RPL34 = target: T12, RPL34 (Homo sapiens, UniProt P49207); details: compound 1 out-competition with IMP-2587 labelling, HEK293T (Table S3, Fig.5b)
T12 construct: endogenous in cells; host or cells: HEK293T
Method in brief: as §1

CLPTM1 = target: T13, CLPTM1 (Homo sapiens, UniProt O96005); details: compound 3 out-competition with IMP-2586 labelling, HEK293T (Table S5, Fig.5d)
T13 construct: endogenous in cells; host or cells: HEK293T
Method in brief: as §1

T5 sequence (Q13510 22-395): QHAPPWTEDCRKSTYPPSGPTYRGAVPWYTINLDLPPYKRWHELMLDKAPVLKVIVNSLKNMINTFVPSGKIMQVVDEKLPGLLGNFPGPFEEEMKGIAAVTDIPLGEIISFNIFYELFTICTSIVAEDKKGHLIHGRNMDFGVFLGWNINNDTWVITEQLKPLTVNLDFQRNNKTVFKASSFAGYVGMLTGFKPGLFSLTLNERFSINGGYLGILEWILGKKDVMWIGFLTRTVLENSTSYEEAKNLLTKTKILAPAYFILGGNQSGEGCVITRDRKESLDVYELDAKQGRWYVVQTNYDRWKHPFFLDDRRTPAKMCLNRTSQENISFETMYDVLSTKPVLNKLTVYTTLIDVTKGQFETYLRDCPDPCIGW
T1 sequence (P09543 whole entry): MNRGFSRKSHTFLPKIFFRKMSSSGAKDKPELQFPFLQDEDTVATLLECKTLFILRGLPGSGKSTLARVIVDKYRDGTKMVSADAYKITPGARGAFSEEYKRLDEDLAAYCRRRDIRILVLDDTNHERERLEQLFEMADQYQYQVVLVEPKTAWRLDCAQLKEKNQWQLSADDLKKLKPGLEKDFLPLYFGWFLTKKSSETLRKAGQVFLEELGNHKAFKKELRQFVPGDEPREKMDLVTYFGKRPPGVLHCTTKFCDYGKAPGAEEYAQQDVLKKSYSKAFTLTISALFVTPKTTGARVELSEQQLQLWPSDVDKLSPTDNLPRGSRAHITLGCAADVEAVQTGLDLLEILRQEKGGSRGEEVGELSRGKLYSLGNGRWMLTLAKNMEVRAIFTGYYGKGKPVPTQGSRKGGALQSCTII
T8 sequence (P51532 whole entry): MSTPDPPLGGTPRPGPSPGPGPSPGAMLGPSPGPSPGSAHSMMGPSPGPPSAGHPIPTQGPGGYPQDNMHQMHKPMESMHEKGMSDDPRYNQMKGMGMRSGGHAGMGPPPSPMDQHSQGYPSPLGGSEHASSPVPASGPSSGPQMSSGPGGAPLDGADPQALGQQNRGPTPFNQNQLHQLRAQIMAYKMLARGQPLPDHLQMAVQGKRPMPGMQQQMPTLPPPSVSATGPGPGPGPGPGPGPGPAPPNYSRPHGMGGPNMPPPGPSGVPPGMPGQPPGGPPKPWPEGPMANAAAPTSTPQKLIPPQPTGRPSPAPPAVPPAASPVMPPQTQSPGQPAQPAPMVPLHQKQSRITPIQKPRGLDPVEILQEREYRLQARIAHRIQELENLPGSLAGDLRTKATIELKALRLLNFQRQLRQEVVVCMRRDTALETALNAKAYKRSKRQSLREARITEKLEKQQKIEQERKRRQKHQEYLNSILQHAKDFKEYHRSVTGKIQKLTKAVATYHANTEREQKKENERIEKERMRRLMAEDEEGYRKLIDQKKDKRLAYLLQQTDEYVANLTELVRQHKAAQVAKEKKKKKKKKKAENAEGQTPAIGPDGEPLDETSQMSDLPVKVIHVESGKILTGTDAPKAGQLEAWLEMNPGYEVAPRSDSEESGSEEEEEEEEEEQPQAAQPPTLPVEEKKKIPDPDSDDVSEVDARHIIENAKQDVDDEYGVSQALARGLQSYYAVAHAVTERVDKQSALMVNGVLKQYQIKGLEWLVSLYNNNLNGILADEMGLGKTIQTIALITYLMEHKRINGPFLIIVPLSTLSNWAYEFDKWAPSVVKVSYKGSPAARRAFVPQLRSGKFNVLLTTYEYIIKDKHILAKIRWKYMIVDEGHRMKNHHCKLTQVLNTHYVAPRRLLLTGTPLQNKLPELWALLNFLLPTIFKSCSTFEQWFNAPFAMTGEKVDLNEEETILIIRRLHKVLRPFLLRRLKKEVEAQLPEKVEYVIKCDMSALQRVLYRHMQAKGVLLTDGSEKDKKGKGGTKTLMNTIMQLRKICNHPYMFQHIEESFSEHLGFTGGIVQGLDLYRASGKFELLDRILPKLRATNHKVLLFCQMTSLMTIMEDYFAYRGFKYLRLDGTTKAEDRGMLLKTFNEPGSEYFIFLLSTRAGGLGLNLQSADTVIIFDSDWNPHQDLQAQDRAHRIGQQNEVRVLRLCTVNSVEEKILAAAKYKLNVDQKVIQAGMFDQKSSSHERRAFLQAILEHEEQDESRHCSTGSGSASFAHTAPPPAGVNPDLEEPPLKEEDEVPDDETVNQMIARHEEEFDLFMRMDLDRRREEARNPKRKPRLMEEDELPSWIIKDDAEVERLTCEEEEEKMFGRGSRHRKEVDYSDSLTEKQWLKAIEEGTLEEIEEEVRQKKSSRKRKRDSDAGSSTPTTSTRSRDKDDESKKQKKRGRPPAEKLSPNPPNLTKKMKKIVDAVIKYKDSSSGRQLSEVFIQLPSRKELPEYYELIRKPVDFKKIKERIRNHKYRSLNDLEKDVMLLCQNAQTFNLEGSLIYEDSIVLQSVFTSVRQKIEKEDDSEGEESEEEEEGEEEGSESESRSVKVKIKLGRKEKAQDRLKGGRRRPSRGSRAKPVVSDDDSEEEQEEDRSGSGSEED
T7 sequence (Q3SXM5 whole entry): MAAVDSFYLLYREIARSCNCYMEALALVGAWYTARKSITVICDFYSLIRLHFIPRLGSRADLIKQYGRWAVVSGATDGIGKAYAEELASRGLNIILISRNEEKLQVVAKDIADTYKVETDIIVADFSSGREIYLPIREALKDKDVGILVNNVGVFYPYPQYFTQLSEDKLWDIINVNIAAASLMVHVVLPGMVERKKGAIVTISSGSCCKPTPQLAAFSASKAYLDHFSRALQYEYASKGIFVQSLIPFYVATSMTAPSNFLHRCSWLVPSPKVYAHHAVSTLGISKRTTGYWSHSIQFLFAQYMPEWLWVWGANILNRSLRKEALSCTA
T10 sequence (O75607 whole entry): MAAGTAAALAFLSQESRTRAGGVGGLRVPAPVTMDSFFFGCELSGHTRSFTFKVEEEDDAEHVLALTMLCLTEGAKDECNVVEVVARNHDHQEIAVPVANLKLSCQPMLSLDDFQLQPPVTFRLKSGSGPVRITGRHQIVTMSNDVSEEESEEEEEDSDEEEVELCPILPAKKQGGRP
T2 sequence (Q9BVC6 34-243): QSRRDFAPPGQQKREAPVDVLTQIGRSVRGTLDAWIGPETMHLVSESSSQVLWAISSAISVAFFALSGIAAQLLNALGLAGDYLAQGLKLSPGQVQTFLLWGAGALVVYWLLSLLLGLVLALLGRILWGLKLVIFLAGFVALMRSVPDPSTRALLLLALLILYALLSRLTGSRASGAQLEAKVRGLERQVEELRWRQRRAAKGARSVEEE
T13 sequence (O96005 whole entry): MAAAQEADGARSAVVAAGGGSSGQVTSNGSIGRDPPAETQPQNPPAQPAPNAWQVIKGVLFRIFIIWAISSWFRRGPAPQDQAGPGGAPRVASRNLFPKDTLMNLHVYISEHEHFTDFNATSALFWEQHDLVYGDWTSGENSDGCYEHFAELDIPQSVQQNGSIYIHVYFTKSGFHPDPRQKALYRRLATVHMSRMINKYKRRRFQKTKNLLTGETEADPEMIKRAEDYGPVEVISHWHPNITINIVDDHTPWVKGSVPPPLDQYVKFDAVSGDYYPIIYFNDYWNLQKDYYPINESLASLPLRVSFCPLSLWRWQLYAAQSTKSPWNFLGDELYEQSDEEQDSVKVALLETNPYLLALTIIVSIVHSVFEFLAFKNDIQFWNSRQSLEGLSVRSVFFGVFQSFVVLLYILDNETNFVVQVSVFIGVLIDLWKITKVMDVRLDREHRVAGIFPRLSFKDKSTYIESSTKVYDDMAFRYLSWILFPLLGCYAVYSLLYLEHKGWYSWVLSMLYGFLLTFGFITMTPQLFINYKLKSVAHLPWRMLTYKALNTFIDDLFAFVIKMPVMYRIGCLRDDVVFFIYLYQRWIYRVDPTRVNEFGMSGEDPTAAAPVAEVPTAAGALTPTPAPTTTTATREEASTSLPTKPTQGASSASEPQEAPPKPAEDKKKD
T11 sequence (P81605 20-110): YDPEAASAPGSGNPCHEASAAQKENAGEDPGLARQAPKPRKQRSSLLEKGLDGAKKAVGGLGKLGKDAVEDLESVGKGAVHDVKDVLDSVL
T9 sequence (Q01581 whole entry): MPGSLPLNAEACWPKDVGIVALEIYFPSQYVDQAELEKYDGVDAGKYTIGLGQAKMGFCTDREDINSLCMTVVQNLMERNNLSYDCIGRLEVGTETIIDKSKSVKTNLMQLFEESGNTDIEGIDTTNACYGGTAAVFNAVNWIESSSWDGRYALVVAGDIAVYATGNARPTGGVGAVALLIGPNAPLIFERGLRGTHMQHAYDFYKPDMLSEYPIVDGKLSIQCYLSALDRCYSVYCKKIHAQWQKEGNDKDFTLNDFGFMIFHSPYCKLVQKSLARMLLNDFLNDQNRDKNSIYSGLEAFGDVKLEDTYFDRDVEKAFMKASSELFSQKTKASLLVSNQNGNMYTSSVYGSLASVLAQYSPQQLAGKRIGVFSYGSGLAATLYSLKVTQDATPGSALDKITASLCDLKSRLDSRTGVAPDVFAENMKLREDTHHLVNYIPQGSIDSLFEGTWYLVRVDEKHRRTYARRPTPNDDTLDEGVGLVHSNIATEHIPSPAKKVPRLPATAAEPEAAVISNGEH
T4 sequence (O15258 whole entry): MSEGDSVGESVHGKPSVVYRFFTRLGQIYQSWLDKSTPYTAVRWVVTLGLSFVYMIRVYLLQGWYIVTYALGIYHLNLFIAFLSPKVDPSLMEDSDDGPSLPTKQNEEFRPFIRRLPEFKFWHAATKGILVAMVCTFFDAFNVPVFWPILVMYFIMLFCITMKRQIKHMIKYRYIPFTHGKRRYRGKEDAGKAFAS

SMILES: N#CN1CC[C@@H](NC(=O)c2cc(-c3ccccc3Oc3ccc(N=[N+]=[N-])cc3)n[nH]2)C1 [IMP-2586]
Difference (log2 fold change of enrichment) (CNP): -0.68
Difference (log2 fold change of enrichment) (TMEM109): -1.56
Difference (log2 fold change of enrichment) (RPL27): -0.76
Difference (log2 fold change of enrichment) (RER1): -1.34
Difference (log2 fold change of enrichment) (ASAH1): 1.08
Difference (log2 fold change of enrichment) (AURKAIP1): 0.81
Difference (log2 fold change of enrichment) (HSDL1): 1.22
Difference (log2 fold change of enrichment) (CAV1; CAV1 (Caveolin)): -2.47
Difference (log2 fold change of enrichment) (CAV1; CAV1 (Caveolin-1)): -1.61
Difference (log2 fold change of enrichment) (SMARCA4): 0.52

SMILES: C#Cc1cccc(-c2cc(NC(=O)CC3CCN(C#N)C3)on2)c1 (stereo not shown) [IMP-2587]
Difference (log2 fold change of enrichment) (HMGCS1): 0.75
Difference (log2 fold change of enrichment) (H2AFV;H2AFZ): 0.65
Difference (log2 fold change of enrichment) (NPM3): 0.89

Difference (log2 fold change of enrichment) (DCD): -0.34
Difference (log2 fold change of enrichment) (RPL34): -0.67
SMILES: N#CN1CC[C@H](CC(=O)Nc2cc(-c3cccc(Cl)c3)no2)C1 [compound 1, reference compound]

Difference (log2 fold change of enrichment) (CLPTM1): -1.18
SMILES: N#CN1CC[C@@H](NC(=O)c2cc(-c3ccccc3Oc3ccccc3)n[nH]2)C1 [compound 3, reference compound]
